Where “and” joins values, the source holds several entries; their conditions need not be identical. Identical values can stand only once.
Experiments:
5-HT2A [1] = target: T1, 5-HT2A (Homo sapiens (Human), UniProt P28223); test: HTRF IP-One antagonist assay, 5-HT2A; type: cell-based; settings: HEK293 cells stably expressing receptor, inositol phosphate accumulation, 80 nM 5-HT in Assay Buffer;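 also: clonal line with low receptor density (about 50–70 fmol/mg), 10-point dose-response from 10 µM in 5-fold steps, HTRF detection after 1 hr, triplicate points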
T1 sequence (P28223 whole entry): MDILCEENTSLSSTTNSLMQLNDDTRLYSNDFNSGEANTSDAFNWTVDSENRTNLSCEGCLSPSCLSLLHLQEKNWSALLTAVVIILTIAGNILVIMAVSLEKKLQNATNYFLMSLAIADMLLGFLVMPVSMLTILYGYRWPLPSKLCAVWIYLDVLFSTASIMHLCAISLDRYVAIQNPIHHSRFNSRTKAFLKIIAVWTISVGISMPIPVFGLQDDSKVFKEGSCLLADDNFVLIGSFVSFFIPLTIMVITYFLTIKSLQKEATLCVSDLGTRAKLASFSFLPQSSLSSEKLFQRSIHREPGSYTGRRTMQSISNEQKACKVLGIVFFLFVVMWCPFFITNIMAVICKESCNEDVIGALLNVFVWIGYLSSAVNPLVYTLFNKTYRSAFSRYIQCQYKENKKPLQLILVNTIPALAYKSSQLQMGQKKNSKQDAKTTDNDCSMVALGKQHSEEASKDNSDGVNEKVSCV

5-HT2C = 5-HT2C (Homo sapiens (Human), UniProt P28335); test: HTRF IP-One antagonist assay, 5-HT2C; type: cell-based; settings: HEK293 cells stably expressing receptor, inositol phosphate accumulation, 80 nM 5-HT in Assay Buffer;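 also: clonal HEK293 line with low 5-HT2C density (10–20 fmol/mg), HTRF detection of IP-One, 10-point dose curves from 10 µM in 5-fold steps, triplicate points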
5-HT2C, sequence (P28335 33-458): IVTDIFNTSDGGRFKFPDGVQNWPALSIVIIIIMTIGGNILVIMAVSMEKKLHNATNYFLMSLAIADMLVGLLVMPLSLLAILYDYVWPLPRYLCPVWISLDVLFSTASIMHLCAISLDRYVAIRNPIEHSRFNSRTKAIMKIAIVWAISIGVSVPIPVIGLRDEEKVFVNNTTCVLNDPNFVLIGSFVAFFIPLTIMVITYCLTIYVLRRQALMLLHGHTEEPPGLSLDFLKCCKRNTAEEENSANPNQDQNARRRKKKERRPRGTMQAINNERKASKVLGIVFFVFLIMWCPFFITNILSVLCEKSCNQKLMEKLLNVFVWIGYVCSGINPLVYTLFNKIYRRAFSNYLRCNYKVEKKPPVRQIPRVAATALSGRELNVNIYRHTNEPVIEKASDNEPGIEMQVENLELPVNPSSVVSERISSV

5-HT2B = 5-HT2B (Homo sapiens (Human), UniProt P41595); test: HTRF IP-One antagonist assay, 5-HT2B; type: cell-based; settings: HEK293 cells stably expressing receptor, inositol phosphate accumulation, 80 nM 5-HT in Assay Buffer;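 also: clonal HEK293 line with low 5-HT2B expression (estimated 150-200 fmol/mg by radioligand binding), IP-One HTRF readout, 10-point curves from 10 µM in 5-fold steps, triplicate points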
5-HT2B, sequence (P41595 whole entry): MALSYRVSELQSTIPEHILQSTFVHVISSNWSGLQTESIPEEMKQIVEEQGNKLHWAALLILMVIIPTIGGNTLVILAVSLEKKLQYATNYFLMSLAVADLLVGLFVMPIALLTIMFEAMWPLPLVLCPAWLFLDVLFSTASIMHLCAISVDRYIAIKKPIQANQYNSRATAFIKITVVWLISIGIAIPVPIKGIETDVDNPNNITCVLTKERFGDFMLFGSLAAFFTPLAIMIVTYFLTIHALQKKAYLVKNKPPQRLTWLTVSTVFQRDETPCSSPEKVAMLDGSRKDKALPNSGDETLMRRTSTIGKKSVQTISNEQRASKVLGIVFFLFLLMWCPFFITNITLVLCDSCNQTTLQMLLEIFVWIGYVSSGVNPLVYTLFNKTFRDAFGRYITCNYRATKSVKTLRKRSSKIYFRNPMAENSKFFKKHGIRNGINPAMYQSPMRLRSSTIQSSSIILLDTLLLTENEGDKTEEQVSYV

5-HT2A [2] = target: T1, 5-HT2A; test: Radioligand binding assay, [^3H]5-HT competition, 5-HT2A; settings: [^3H]5-HT radioligand, membranes of HEK293 cells expressing recombinant 5-HT2A; Ki from IC50 by Cheng-Prusoff; read-out: 5-HT2A serotonin binding Ki value

SMILES | IC50 (5-HT2A [1]) [nM] | IC50 (5-HT2C) [nM] | IC50 (5-HT2B) [nM] | Ki (5-HT2A [2])
Cc1ncnc(C)c1-c1cc(NC(=O)C2CC2)ccc1OC1CNC1 [Compound 396, N-[4-(azetidin-3-yloxy)-3-(4,6-dimethylpyrimidin-5-yl)phenyl]cyclopropanecarboxamide] | 50.5 | 100000 | 100000 | 5.93 nM
Cc1ncnc(C)c1-c1cc(NC(=O)C2(F)CC2)ccc1OC1CNC1 [Compound 398, N-(4-(azetidin-3-yloxy)-3-(4,6-dimethylpyrimidin-5-yl)phenyl)-1-fluorocyclopropane-1-carboxamide] | 33.8 | 100000 | 100000 | 6.26 nM
Cc1ncnc(C)c1-c1cc(NC(=O)c2ccccc2)ccc1OC1CNC1 [Compound 400, N-(4-(azetidin-3-yloxy)-3-(4,6-dimethylpyrimidin-5-yl)phenyl)benzamide] | 38.6 | 100000 | 100000 | 4.2 nM
Cc1ncnc(C)c1-c1cc(NC(=O)[C@@H]2C[C@H]2F)ccc1O[C@@H]1CCCNC1 [Compound 409, (1S,2R)—N-(3-(4,6-dimethylpyrimidin-5-yl)-4-(((R)-piperidin-3-yl)oxy)phenyl)-2-fluorocyclopropane-1-carboxamide] | 18.9 | 100000 | 2920 | 6.67 nM
Cc1ncnc(C)c1-c1cc(NC(=O)C2(F)CC2)ccc1OC[C@H]1CCCCN1 [Compound 438, N-[3-(4,6-dimethylpyrimidin-5-yl)-4-[[(2R)-2-piperidyl]methoxy]phenyl]-1-fluoro-cyclopropanecarboxamide] | 16.4 | 100000 | 100000 | 9.18 nM
Cc1ncnc(C)c1-c1cc(NC(=O)C2(F)CCC2)ccc1OC[C@H]1CCCCN1 [Compound 444, (R)—N-(3-(4,6-dimethylpyrimidin-5-yl)-4-(piperidin-2-ylmethoxy)phenyl)-1-fluorocyclobutane-1-carboxamide] | 11.8 | 100000 | 100000 | 4.93 nM
CCOC1CC1C(=O)Nc1ccc(OC[C@H]2CCCCN2)c(-c2c(C)ncnc2C)c1 (stereo partly drawn) [Compound 447, N-(3-(4,6-dimethylpyrimidin-5-yl)-4-(((R)-piperidin-2-yl)methoxy)phenyl)-2-ethoxycyclopropane-1-carboxamide] | 9.05 | 100000 | 100000 | 7.08 nM and 19.6 nM
COCCNCCOc1ccc(NC(=O)C2(F)CC2)cc1-c1c(C)ncnc1C [Compound 453, N-(3-(4,6-dimethylpyrimidin-5-yl)-4-(2-((2-methoxyethyl)amino)ethoxy)phenyl)-1-fluorocyclopropane-1-carboxamide] | 4.84 | 100000 | 100000 | 4.76 nM
